Experimental data: PMC11477289, “Low-Basicity 5-HT6 Receptor Ligands from the Group of Cyclic Arylguanidine Derivatives and Their Antiproliferative Activity Evaluation” (International Journal of Molecular Sciences, 2024)

Assays:
human 5-HT6 = molecular target: T1, human 5-HT6 (Homo sapiens, UniProt P50406); assay: [3H]-LSD radioligand binding assay, 5-HT6R; conditions: HEK293 expressing human 5-HT6R, read-out: 5-HT6 Ki
T1 construct: expressed in transfected cells
Method: Next, the ligands’ affinity for the 5-HT6 receptors was evaluated in the [^3H]-LSD radioligand binding assay. Experiments were performed in a stable HEK293 cell line expressing the human 5-HT6R.
The pellets were stored at −80 °C.

[1] = Chromatographic hydrophobicity index on C18 column (lipophilicity); format: physicochemical
[2] = Affinity to phospholipids, IAM column (CHI IAM); format: physicochemical; conditions: IAM.PC.DD2 column, pH 7.4

T1 sequence (P50406 whole entry): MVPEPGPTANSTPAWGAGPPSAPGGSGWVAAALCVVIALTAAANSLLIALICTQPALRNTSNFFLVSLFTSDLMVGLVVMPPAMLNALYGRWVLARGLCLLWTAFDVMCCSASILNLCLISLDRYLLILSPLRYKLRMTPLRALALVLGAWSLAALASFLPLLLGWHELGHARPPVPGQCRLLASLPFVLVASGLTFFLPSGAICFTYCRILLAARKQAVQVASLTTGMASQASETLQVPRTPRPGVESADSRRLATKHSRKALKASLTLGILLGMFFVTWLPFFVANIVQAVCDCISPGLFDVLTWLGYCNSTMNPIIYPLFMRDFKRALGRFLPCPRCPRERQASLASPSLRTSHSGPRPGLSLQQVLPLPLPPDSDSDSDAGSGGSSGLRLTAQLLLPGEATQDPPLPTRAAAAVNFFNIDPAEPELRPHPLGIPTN

Compound | Ki (human 5-HT6) [µM] | CHI C18 pH 2.6 [1] | CHI C18 pH 7.4 [1] | CHI C18 pH 10.5 [1] | CHI IAM [2] | melting point [°C]
O=S(=O)(NC1=Nc2ccccc2CN1)c1cc(Cl)cc(Cl)c1 [PR 23, 3,5-dichloro-N-(3,4-dihydroquinazolin-2-yl)benzene-1-sulfonamide] | 0.609 ± 0.152 | 95.2 | 94.6 | 97.7 | 42.6 | 208 to 211
COc1cccc(S(=O)(=O)NC2=Nc3ccccc3CN2)c1 [PR 24, N -(3,4-dihydroquinazolin-2-yl)-3-methoxybenzene-1-sulfonamide] | 0.906 ± 0.227 | 74.1 | 74.5 | 75.5 | 31.4 | 108 to 114
O=S(=O)(NC1=Nc2ccccc2CN1)c1ccccc1Cl [PR 18, 2-chloro-N-(3,4-dihydroquinazolin-2-yl)benzene-1-sulfonamide] | 1.8 ± 0.451 | 76.4 | 76.3 | 86.6 | 33.5 | 217 to 222
O=S(=O)(NC1=Nc2ccccc2CN1)c1cccc(Cl)c1Cl [PR 20, 2,3-dichloro-N-(3,4-dihydroquinazolin-2-yl)benzene-1-sulfonamide] | 0.293 ± 0.073 | – | – | – | – | –
CC1NC(NS(=O)(=O)c2ccccc2)=Nc2ccccc21 (centres unmarked) [PR 28, N -(4-methyl-3,4-dihydroquinazolin-2-yl)benzenesulfonamide] | 4.03 ± 1.01 | – | – | – | – | –
N#Cc1cccc(S(=O)(=O)n2c(N)nc3ccccc32)c1 [PR 2, 3-[(2-amino-1H-1,3-benzodiazol-1-yl)sulfonyl]benzonitrile] | 49.2 ± 1.23 | – | – | – | – | –
O=S(=O)(NC1=Nc2ccccc2CN1)c1ccc(Cl)c(Cl)c1 [PR 21, N -(3,4-dihydroquinazolin-2-yl)-3,4-dichlorobenzene-1-sulfonamide] | 1.02 ± 0.256 | 94.2 | 92.3 | 95.2 | 42.0 | 192 to 193
CC1NC(NS(=O)(=O)c2ccc3ccccc3c2)=Nc2ccccc21 (centres unmarked) [PR 34, N -(4-methyl-3,4-dihydroquinazolin-2-yl)naphthalene-2-sulfonamide] | 0.702 ± 0.152 | – | – | – | – | –
O=S(=O)(NC1=NCCc2ccccc2N1)c1ccc2ccccc2c1 [PR 38, N -(4,5-dihydro-1H-1,3-benzodiazepin-2-yl)naphthalene-2-sulfonamide] | 1.41 ± 0.331 | – | – | – | – | 175 to 180
O=S(=O)(NC1=NCc2ccccc2N1)c1ccccc1 [PR 13, N-(3,4-dihydroquinazolin-2-yl)benzenesulfonamide] | 2.61 ± 0.651 | – | – | – | – | –
Nc1nc2ccccc2n1S(=O)(=O)c1cccc2ccccc12 [PR 3, 1-(naphthalene-1-sulfonyl)-1H-1,3-benzodiazol-2-amine] | 0.148 ± 0.037 | – | – | – | – | –
CC1NC(NS(=O)(=O)c2ccc3ccccc3c2)=Nc2ccc(Cl)cc21 (centres unmarked) [PR 35, N -(6-chloro-4-methyl-3,4-dihydroquinazolin-2-yl)naphthalene-2-sulfonamide] | 2.38 ± 0.593 | – | – | – | – | –
Nc1nc2ccccc2n1S(=O)(=O)c1ccc2ccccc2c1 [PR 4, 1-(naphthalene-2-sulfonyl)-1H-1,3-benzodiazol-2-amine] | 0.33 ± 0.083 | – | – | – | – | –
O=S(=O)(Nc1nc2ccccc2[nH]1)c1ccccc1 [PR 10, N -(1H-1,3-benzodiazol-2-yl)benzenesulfonamide] | 1.72 ± 0.429 | – | – | – | – | –
Nc1nc2ccccc2n1S(=O)(=O)c1ccccc1 [PR 1, 1-(benzenesulfonyl)-1H-1,3-benzodiazol-2-amine] | 2.16 ± 0.539 | – | – | – | – | –
O=S(=O)(NC1=Nc2ccccc2CN1)c1ccc(F)cc1 [PR 14, N-(3,4-dihydroquinazolin-2-yl)-4-fluorobenzene-1-sulfonamide] | 2.44 ± 0.61 | 75.4 | 75.0 | 75.7 | 31.3 | 215 to 216
O=S(=O)(NC1=NCc2ccccc2N1)c1ccc2ccccc2c1 [PR 29, N -(3,4-dihydroquinazolin-2-yl)naphthalene-2-sulfonamide] | 3.63 ± 0.909 | – | – | – | – | –
O=S(=O)(NC1=Nc2ccccc2CN1)c1ccc(-c2ccccc2)cc1 [PR 26, N -(3,4-dihydroquinazolin-2-yl)-[1,1′-biphenyl]-4-sulfonamide] | 4.31 ± 1.08 | – | – | – | – | –
O=S(=O)(NC1=Nc2ccccc2CN1)c1ccc(F)c(F)c1 [PR 15, N -(3,4-dihydroquinazolin-2-yl)-3,4-difluorobenzene-1-sulfonamide] | 5.27 ± 1.33 | – | – | – | – | –
N -(3,4-dihydroquinazolin-2-yl)naphthalene-2-sulfonamide [PR 39] | 4.27 ± 0.983 | – | – | – | – | –
O=S(=O)(NC1=Nc2ccccc2CN1)c1ccc(C(F)(F)F)cc1 [PR 16, N -(3,4-dihydroquinazolin-2-yl)-4-(trifluoromethyl)benzene-1-sulfonamide] | 5.1 ± 1.27 | – | – | – | – | –
O=S(=O)(NC1=Nc2ccccc2CN1)c1c(Cl)cccc1Cl [PR 22, 2,6-dichloro-N-(3,4-dihydroquinazolin-2-yl)benzene-1-sulfonamide] | 1.46 ± 0.364 | – | – | – | – | 168 to 174
Nc1nc2ccccc2n1S(=O)(=O)c1ccc2c(c1)CC(=O)N2 [PR 5, 5-[(2-amino-1H-1,3-benzodiazol-1-yl)sulfonyl]-2,3-dihydro-1H-indol-2-one] | 14.8 ± 3.69 | – | – | – | – | –
CN(c1nc2ccccc2n1C)S(=O)(=O)c1ccc2ccccc2c1 [PR 12, N -methyl-N-(1-methyl-1H-1,3-benzodiazol-2-yl)naphthalene-2-sulfonamide] | 41.9 ± 10.5 | – | – | – | – | –
O=S(=O)(NC1=NCc2cc(Cl)ccc2N1)c1ccc2ccccc2c1 [PR 32, N -(6-chloro-3,4-dihydroquinazolin-2-yl)naphthalene-2-sulfonamide] | 0.948 ± 0.212 | – | – | – | – | –
Nc1nc2cc(Cl)ccc2n1S(=O)(=O)c1cccc2ccccc12 [PR 6, 5-chloro-1-(naphthalene-1-sulfonyl)-1H-1,3-benzodiazol-2-amine] | 0.704 ± 0.176 | – | – | – | – | –
O=S(=O)(NC1=Nc2ccc(Cl)cc2CN1)c1ccccc1 [PR 27, N -(6-chloro-3,4-dihydroquinazolin-2-yl)benzenesulfonamide] | 1.69 ± 0.422 | – | – | – | – | –
Cc1c(S(=O)(=O)n2c(N)nc3ccccc32)sc2ccc(F)cc12 [PR 7, 1-[(5-fluoro-3-methyl-1-benzothiophen-2-yl)sulfonyl]-1H-1,3-benzodiazol-2-amine] | 2.95 ± 0.737 | – | – | – | – | –

The next lines start with the values.

Ki (human 5-HT6) [µM] | CHI C18 pH 2.6 [1] | CHI C18 pH 7.4 [1] | CHI C18 pH 10.5 [1] | CHI IAM [2] | melting point [°C] | Compound
4.7 ± 1.08 | – | – | – | – | 278 to 281 | O=S(=O)(NC1=Nc2ccc(N3CCOCC3)cc2CN1)c1cccc2ccccc12 [PR 65, N -[6-(morpholin-4-yl)-3,4-dihydroquinazolin-2-yl]naphthalene-1-sulfonamide]
0.653 ± 0.151 | 93.2 | 93.0 | 93.7 | 41.6 | 166 to 175 | Cc1ccc2c(c1)N=C(NS(=O)(=O)c1cccc3ccccc13)NC2 [PR 62, N -(7-methyl-3,4-dihydroquinazolin-2-yl)naphthalene-1-sulfonamide]
0.451 ± 0.102 | 106.2 | 103.9 | 108.6 | 49.0 | 233 to 240 | O=S(=O)(NC1=Nc2ccc(Cl)c(Cl)c2CN1)c1cccc2ccccc12 [PR 50, N -(5,6-dichloro-3,4-dihydroquinazolin-2-yl)naphthalene-1-sulfonamide]
0.372 ± 0.093 | – | – | – | – | 144 to 153 | CC1NC(NS(=O)(=O)c2cccc3ccccc23)=Nc2ccc(Cl)cc21 (centres unmarked) [PR 69, N -(6-chloro-4-methyl-3,4-dihydroquinazolin-2-yl)naphthalene-1-sulfonamide]
0.997 ± 0.249 | 114.1 | 111.3 | 116.7 | 49.3 | 109 to 116 | CC1NC(NS(=O)(=O)c2cccc3ccccc23)=Nc2c(Cl)cc(Cl)cc21 (centres unmarked) [PR 72, N -(6,8-dichloro-4-methyl-3,4-dihydroquinazolin-2-yl)naphthalene-1-sulfonamide]
0.985 ± 0.245 | 100.2 | 99.7 | 101.0 | 45.8 | 214 to 219 | CC1NC(NS(=O)(=O)c2cccc3ccccc23)=Nc2cc(Cl)ccc21 (centres unmarked) [PR 70, N -(7-chloro-4-methyl-3,4-dihydroquinazolin-2-yl)naphthalene-1-sulfonamide]
0.668 ± 0.156 | 97.6 | 97.1 | 95.9 | 44.6 | 214 to 219 | O=S(=O)(NC1=Nc2cc(Cl)ccc2CN1)c1cccc2ccccc12 [PR 48, N -(7-chloro-3,4-dihydroquinazolin-2-yl)naphthalene-1-sulfonamide]
1.02 ± 0.235 | – | – | – | – | 215 to 222 | O=S(=O)(NC1=Nc2ccc(C(F)(F)F)cc2CN1)c1cccc2ccccc12 [PR 57, N -[6-(trifluoromethyl)-3,4-dihydroquinazolin-2-yl]naphthalene-1-sulfonamide]
0.133 ± 0.033 | – | – | – | – | 267 to 270 | O=S(=O)(NC1=Nc2cccc(Cl)c2CN1)c1c(Cl)ccc2ccccc12 [PR 52, 2-chloro-N-(5-chloro-3,4-dihydroquinazolin-2-yl)naphthalene-1-sulfonamide]
0.736 ± 0.169 | – | – | – | – | 103 to 105 | O=S(=O)(NC1=Nc2ccccc2CN1)c1cccc2cccc(Cl)c12 [PR 45, 8-chloro-N-(3,4-dihydroquinazolin-2-yl)naphthalene-1-sulfonamide]
1.79 ± 0.412 | – | – | – | – | 206 to 210 | O=S(=O)(NC1=Nc2ccc(F)cc2CN1)c1cccc2ccccc12 [PR 55, N -(6-fluoro-3,4-dihydroquinazolin-2-yl)naphthalene-1-sulfonamide]
0.151 ± 0.035 | – | – | – | – | – | CN(C)c1cccc2c1CNC(NS(=O)(=O)c1cccc3ccccc13)=N2 [PR 63, N -[5-(dimethylamino)-3,4-dihydroquinazolin-2-yl]naphthalene-1-sulfonamide]
